# Source: PubChem BioAssay (NCI)
#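 These data come from cells grown in 96-well plates and exposed to compound for 48 hours at five concentrations. TGI is the concentration that stops growth completely.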
# Test system: KM12 colon
# Experiment: growth of human tumour cells (NCI), 48 h
row,Structure (SMILES),TGI [µM]
1,CCOC(=O)C1N(S(=O)(=O)c2ccc(C)cc2)CCC12C(c1ccc(OC)cc1)NC1CCCCC12 (stereo not given),> 100
2,O=C(/C=C/c1ccccc1)/C=C/c1ccccc1,38.2

# Test system: SK-MEL-28 melanoma
# Experiment: growth of human tumour cells (NCI), 48 h
row,Structure (SMILES),TGI [µM]
1,Cc1cccc(NC(=O)/C=C/c2ccc(N(CCC#N)CCC#N)cc2C)c1,> 100
2,O=C(Nc1ccc([N+](=O)[O-])cc1)C1C(=O)C(=O)N(c2ccc([N+](=O)[O-])cc2)C1=O (stereo not given),> 100
3,CCOC(=O)C1N(S(=O)(=O)c2ccc(C)cc2)CCC12C(c1ccc(OC)cc1)NC1CCCCC12 (stereo not given),> 100
4,O=C(/C=C/c1ccccc1)/C=C/c1ccccc1,42.9

# Test system: SN12C renal
# Experiment: growth of human tumour cells (NCI), 48 h
row,Structure (SMILES),TGI [µM]
1,Cc1cccc(NC(=O)/C=C/c2ccc(N(CCC#N)CCC#N)cc2C)c1,> 100
2,O=C(Nc1ccc([N+](=O)[O-])cc1)C1C(=O)C(=O)N(c2ccc([N+](=O)[O-])cc2)C1=O (stereo not given),> 100
3,CCOC(=O)C1N(S(=O)(=O)c2ccc(C)cc2)CCC12C(c1ccc(OC)cc1)NC1CCCCC12 (stereo not given),> 100
4,O=C(/C=C/c1ccccc1)/C=C/c1ccccc1,42.1

# Test system: RPMI-8226 leukemia
# Experiment: growth of human tumour cells (NCI), 48 h
row,Structure (SMILES),TGI [µM]
1,Cc1cccc(NC(=O)/C=C/c2ccc(N(CCC#N)CCC#N)cc2C)c1,> 100
2,O=C(Nc1ccc([N+](=O)[O-])cc1)C1C(=O)C(=O)N(c2ccc([N+](=O)[O-])cc2)C1=O (stereo not given),> 100
3,CCOC(=O)C1N(S(=O)(=O)c2ccc(C)cc2)CCC12C(c1ccc(OC)cc1)NC1CCCCC12 (stereo not given),> 100
4,O=C(/C=C/c1ccccc1)/C=C/c1ccccc1,> 100

# Test system: CAKI-1 renal
# Experiment: growth of human tumour cells (NCI), 48 h
row,Structure (SMILES),TGI [µM]
1,Cc1cccc(NC(=O)/C=C/c2ccc(N(CCC#N)CCC#N)cc2C)c1,> 100
2,O=C(Nc1ccc([N+](=O)[O-])cc1)C1C(=O)C(=O)N(c2ccc([N+](=O)[O-])cc2)C1=O (stereo not given),> 100
3,CCOC(=O)C1N(S(=O)(=O)c2ccc(C)cc2)CCC12C(c1ccc(OC)cc1)NC1CCCCC12 (stereo not given),> 100
4,O=C(/C=C/c1ccccc1)/C=C/c1ccccc1,> 100

# Test system: 786-0 renal
# Experiment: growth of human tumour cells (NCI), 48 h
row,Structure (SMILES),TGI [µM]
1,Cc1cccc(NC(=O)/C=C/c2ccc(N(CCC#N)CCC#N)cc2C)c1,> 100
2,O=C(Nc1ccc([N+](=O)[O-])cc1)C1C(=O)C(=O)N(c2ccc([N+](=O)[O-])cc2)C1=O (stereo not given),> 100
3,CCOC(=O)C1N(S(=O)(=O)c2ccc(C)cc2)CCC12C(c1ccc(OC)cc1)NC1CCCCC12 (stereo not given),> 100
4,O=C(/C=C/c1ccccc1)/C=C/c1ccccc1,85.5

# Test system: M14 melanoma
# Experiment: growth of human tumour cells (NCI), 48 h
row,Structure (SMILES),TGI [µM]
1,Cc1cccc(NC(=O)/C=C/c2ccc(N(CCC#N)CCC#N)cc2C)c1,> 100
2,O=C(Nc1ccc([N+](=O)[O-])cc1)C1C(=O)C(=O)N(c2ccc([N+](=O)[O-])cc2)C1=O (stereo not given),> 100
3,CCOC(=O)C1N(S(=O)(=O)c2ccc(C)cc2)CCC12C(c1ccc(OC)cc1)NC1CCCCC12 (stereo not given),> 100
4,O=C(/C=C/c1ccccc1)/C=C/c1ccccc1,39.8

# Test system: OVCAR-4 ovarian
# Experiment: growth of human tumour cells (NCI), 48 h
row,Structure (SMILES),TGI [µM]
1,Cc1cccc(NC(=O)/C=C/c2ccc(N(CCC#N)CCC#N)cc2C)c1,> 100
2,CCOC(=O)C1N(S(=O)(=O)c2ccc(C)cc2)CCC12C(c1ccc(OC)cc1)NC1CCCCC12 (stereo not given),> 100
3,O=C(/C=C/c1ccccc1)/C=C/c1ccccc1,53.2

# Test system: MOLT-4 leukemia
# Experiment: growth of human tumour cells (NCI), 48 h
row,Structure (SMILES),TGI [µM]
1,Cc1cccc(NC(=O)/C=C/c2ccc(N(CCC#N)CCC#N)cc2C)c1,> 100
2,O=C(Nc1ccc([N+](=O)[O-])cc1)C1C(=O)C(=O)N(c2ccc([N+](=O)[O-])cc2)C1=O (stereo not given),> 100
3,O=C(/C=C/c1ccccc1)/C=C/c1ccccc1,86.5

# Test system: A498 renal
# Experiment: growth of human tumour cells (NCI), 48 h
row,Structure (SMILES),TGI [µM]
1,Cc1cccc(NC(=O)/C=C/c2ccc(N(CCC#N)CCC#N)cc2C)c1,> 100
2,O=C(Nc1ccc([N+](=O)[O-])cc1)C1C(=O)C(=O)N(c2ccc([N+](=O)[O-])cc2)C1=O (stereo not given),> 100
3,CCOC(=O)C1N(S(=O)(=O)c2ccc(C)cc2)CCC12C(c1ccc(OC)cc1)NC1CCCCC12 (stereo not given),> 100
4,O=C(/C=C/c1ccccc1)/C=C/c1ccccc1,> 100

# Test system: DMS 114 small cell lung
# Experiment: growth of human tumour cells (NCI), 48 h
row,Structure (SMILES),TGI [µM]
1,Cc1cccc(NC(=O)/C=C/c2ccc(N(CCC#N)CCC#N)cc2C)c1,> 100
2,O=C(Nc1ccc([N+](=O)[O-])cc1)C1C(=O)C(=O)N(c2ccc([N+](=O)[O-])cc2)C1=O (stereo not given),35.8
3,CCOC(=O)C1N(S(=O)(=O)c2ccc(C)cc2)CCC12C(c1ccc(OC)cc1)NC1CCCCC12 (stereo not given),> 100
4,O=C(/C=C/c1ccccc1)/C=C/c1ccccc1,52.9

# Test system: OVCAR-3 ovarian
# Experiment: growth of human tumour cells (NCI), 48 h
row,Structure (SMILES),TGI [µM]
1,Cc1cccc(NC(=O)/C=C/c2ccc(N(CCC#N)CCC#N)cc2C)c1,> 100
2,O=C(Nc1ccc([N+](=O)[O-])cc1)C1C(=O)C(=O)N(c2ccc([N+](=O)[O-])cc2)C1=O (stereo not given),> 100
3,CCOC(=O)C1N(S(=O)(=O)c2ccc(C)cc2)CCC12C(c1ccc(OC)cc1)NC1CCCCC12 (stereo not given),> 100
4,O=C(/C=C/c1ccccc1)/C=C/c1ccccc1,51.3

# Test system: SNB-78 CNS
# Experiment: growth of human tumour cells (NCI), 48 h
row,Structure (SMILES),TGI [µM]
1,O=C(Nc1ccc([N+](=O)[O-])cc1)C1C(=O)C(=O)N(c2ccc([N+](=O)[O-])cc2)C1=O (stereo not given),> 100
2,CCOC(=O)C1N(S(=O)(=O)c2ccc(C)cc2)CCC12C(c1ccc(OC)cc1)NC1CCCCC12 (stereo not given),> 100
3,O=C(/C=C/c1ccccc1)/C=C/c1ccccc1,> 100

# Test system: CCRF-CEM leukemia
# Experiment: growth of human tumour cells (NCI), 48 h
row,Structure (SMILES),TGI [µM]
1,Cc1cccc(NC(=O)/C=C/c2ccc(N(CCC#N)CCC#N)cc2C)c1,> 100
2,O=C(Nc1ccc([N+](=O)[O-])cc1)C1C(=O)C(=O)N(c2ccc([N+](=O)[O-])cc2)C1=O (stereo not given),> 100
3,CCOC(=O)C1N(S(=O)(=O)c2ccc(C)cc2)CCC12C(c1ccc(OC)cc1)NC1CCCCC12 (stereo not given),> 100
4,O=C(/C=C/c1ccccc1)/C=C/c1ccccc1,> 100

# Test system: M19-MEL melanoma
# Experiment: growth of human tumour cells (NCI), 48 h
row,Structure (SMILES),TGI [µM]
1,Cc1cccc(NC(=O)/C=C/c2ccc(N(CCC#N)CCC#N)cc2C)c1,> 100
2,CCOC(=O)C1N(S(=O)(=O)c2ccc(C)cc2)CCC12C(c1ccc(OC)cc1)NC1CCCCC12 (stereo not given),> 100
3,O=C(/C=C/c1ccccc1)/C=C/c1ccccc1,50.2

# Test system: UACC-257 melanoma
# Experiment: growth of human tumour cells (NCI), 48 h
row,Structure (SMILES),TGI [µM]
1,Cc1cccc(NC(=O)/C=C/c2ccc(N(CCC#N)CCC#N)cc2C)c1,> 100
